Assay results as given in US20250154112A1, “A PREPARATION OF QUINAZOLINEDIONES AND USE THEREOF” (COUNCIL OF SCIENTIFIC AND INDUSTRIAL RESEARCH AN INDIAN …, priority 2021, published 2025).

Key:
[1] = system: C57BL/6 mice fed with high fat diet (HFD); experiment: HFD induced fatty liver disease model; type: in vivo; conditions: HFD 12 weeks, 80 mg/kg orally for the last 4 weeks
Experimental: A preclinical therapeutic model was developed where C57BL/6 mice were fed with 60% kcal high fat diet (HFD) for 12 weeks, and for the last 4 weeks the mice were orally fed with the compound 62 at 80 mg/kg body weight dose.

[2] = system: HepG2 cells; experiment: Confocal microscopy of lipid droplets in oleate induced HepG2 cells; type: cell-based; conditions: 250 μM oleate induction, 100 nM and 500 nM, 24 hours
Experimental: To select the compounds capable of inhibiting the ubiquitination of ATGL by COP1 by targeting the VP motif, confocal microscopy was performed with the provided molecules. If the compound was effective in inhibiting the interaction, there would have been a reduction in the number of fat droplets in the cells after treatment. […] With this rationale in mind, HepG2 cells were induced to accumulate lipid droplets after treatment with 250 μM of oleate and 10 μM of the specific compounds were added. The potential of the compounds to bring about a reduction in the number of fat droplets was then checked by comparison with oleate induced cells by counting number of droplets of approximately 20 cells from each treatment and calculating the average number of lipid droplets of each cell. The selected compounds were then subjected to dose dependent treatments and the ones which could maintain its potency to reduce fat droplets at lower doses were then selected for western blot analysis. The compound which could reduce the number of fat droplets in the cells were expected to raise the levels of ATGL since they were likely to deter COP1 from ubiquitinating ATGL. This increase was visible only in the protein level and gene expression was likely to remain unchanged since ubiquitination is a […] modification. […]

[3] = molecular target: T1, COP1 (Mus musculus, UniProt Q9R1A8); experiment: In vivo study, Western blot of COP1 in mice liver and adipose tissue; design: species or system C57BL/6 mice; conditions: 80 mg/kg orally, 9 days
T1 construct: from tissue; host or cells: liver and adipose tissue of C57BL/6 mice
Experimental: (§1) 6-8 weeks old healthy male C57BL/6 mice (average weight: 28 grams) were taken for the study. These were then divided into two groups comprising of three mice per group (Control, compound 62). Mice were fed with 80 mg/kg of compound 62 orally. The compound was dissolved in 10% EtOH, 40% PEG, 20% PG, 30% NaCl solution (0.9%). The control group was fed only with the solvent in which the compound was dissolved. Post 9 days of one-time feeding mice were sacrificed and a portion of the excised liver tissue and adipose was homogenized in lysis buffer containing protease inhibitor cocktail. The homogenate was centrifuged at 20,000 g for 30 minutes following which the supernatant containing the protein lysate was collected. The lysate was then diluted accordingly, and protein estimation was carried out by Bradford Assay. This was followed by Western Blotting wherein the levels of ATGL and COP1 were checked. Actin was used as the loading control.

[4] = system: ATGL; experiment: In vivo study, Western blot of ATGL in mice liver and adipose tissue; design: species or system C57BL/6 mice; conditions: 80 mg/kg orally, 9 days
Experimental: as §1

[5] = system: ATGL; experiment: Western blot of ATGL level in primary mouse hepatocytes; type: cell-based; conditions: 10 nM to 500 nM, 24 hours, with respect to control
Experimental: To further strengthen the efficiency of the compound 62, primary hepatocytes were isolated from mice and these compounds were treated in a dose dependent manner for 24 hours. Primary hepatocytes and adipose tissue explants were isolated from mice and subjected to compound treatment for 24 hours at the doses of 10 nM, 20 nM, 50 nM, 100 nM and 500 nM. Post cell harvesting, western blot was carried out with the lysate to check the ATGL level. ATGL and COP1 antibodies were used. Actin served the purpose of a loading control.
Hepatocytes-2-4 months old chow-fed black male mouse (C57b1/6) was sacrificed using chloroform (SRL) and was cleaned with 70% ethanol. […] Blood was drawn from the heart in order to prevent backflow into liver while perfusion. The butterfly cannula was inserted into the PV and 20 ml of HBSS (Hank's Balanced Salt Solution; 5 mM KCl, 0.4 mM KH2PO4, 4 mM NaHCO3, 140 mM NaCl, 0.3 mM Na2HPO4, 6 mM Glucose, HEPES, 0.5 mM MgCl2.6H2O, 0.4 mM MgSO4·7H2O, 0.5 mM EDTA; not containing 1 mM CaCl2)) was allowed to pass through the liver (Perfusion) at a constant flow rate of 3 ml/min, maintained by Masterflex digital peristaltic pump (Cole-Parmer). The IVC was cut as soon as the passage of the buffer through the liver began, so that blood and perfusate from liver was drained through the IVC. The liver blanched and became pale in color upon this treatment. […]

T1 sequence (Q9R1A8 whole entry): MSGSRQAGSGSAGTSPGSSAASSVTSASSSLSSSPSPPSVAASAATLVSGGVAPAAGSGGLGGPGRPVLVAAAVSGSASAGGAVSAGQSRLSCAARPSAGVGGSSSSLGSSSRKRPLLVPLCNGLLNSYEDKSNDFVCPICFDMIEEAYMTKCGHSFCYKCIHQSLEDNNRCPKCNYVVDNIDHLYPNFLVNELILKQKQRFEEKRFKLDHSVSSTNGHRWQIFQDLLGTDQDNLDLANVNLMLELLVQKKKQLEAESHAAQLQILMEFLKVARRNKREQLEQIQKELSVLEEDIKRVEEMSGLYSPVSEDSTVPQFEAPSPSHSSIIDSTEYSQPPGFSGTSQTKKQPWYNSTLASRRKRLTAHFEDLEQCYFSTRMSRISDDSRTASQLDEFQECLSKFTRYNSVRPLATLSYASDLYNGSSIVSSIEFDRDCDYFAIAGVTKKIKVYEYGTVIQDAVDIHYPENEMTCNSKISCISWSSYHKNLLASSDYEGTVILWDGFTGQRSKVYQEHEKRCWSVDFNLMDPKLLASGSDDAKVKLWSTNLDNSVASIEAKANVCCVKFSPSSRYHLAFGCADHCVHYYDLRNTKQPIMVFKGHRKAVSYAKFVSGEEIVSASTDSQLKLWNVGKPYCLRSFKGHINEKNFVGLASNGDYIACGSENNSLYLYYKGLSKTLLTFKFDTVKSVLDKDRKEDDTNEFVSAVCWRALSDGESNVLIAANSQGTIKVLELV

With `COCCn1c(=O)c2cc(NC(=O)Nc3cccc(C(C)=O)c3)ccc2n(CCN2CCCCC2)c1=O` [Compound 62, 1-(3-acetylphenyl)-3-(3-(2-methoxyethyl)-2,4-dioxo-1-(2-(piperidin-1-yl)ethyl)-1,2,3,4-tetrahydroquinazolin-6-yl)urea] as the molecule, how does the body weight [1] read?
Its body weight is “Reductions”.

What about the hepatic fibrogenesis [1] of the same molecule?
Its hepatic fibrogenesis is “improvement in hepatic fibrogenesis”.

What about the “hepatic lipid droplets (FIG. 7A)” value [1] of the same molecule?
Its value is “considerable depletion of hepatic lipid droplets”.

What about the liver triglyceride content [1] of the same molecule?
The liver triglyceride content was “Reductions”.

And the serum cholesterol level [1]?
Its serum cholesterol level is “Reductions”.

And the total liver weight [1]?
Its total liver weight is “Reductions”.

What about the “number of lipid droplets” value [2] of the same molecule?
The value was “decrease in the number of lipid droplets”.

And the “COP1 levels in liver and adipose lysates” value [3]?
Its value is “effective in increasing ATGL and COP1 levels”.

And the “ATGL levels in liver and adipose lysates” value [4]?
Its value is “effective in increasing ATGL and COP1 levels”.

And the “ATGL level (Western Blot)” value [5]?
Its value is “increased ATGL level”.
